Measurements as given in publication PMC12434534, “Synthesis and Antiviral Evaluation of Unexplored Dioxolane-Derived 7‑Deazapurine Nucleoside Analogues against Epstein–Barr Virus (EBV)” (ACS Medicinal Chemistry Letters, 2025).
Like-named read-outs stand apart in the source and are kept apart here.

Columns and labels:
EBV = assay: Anti-EBV assay: reduction of EBV DNA synthesis (qPCR) in TPA-induced P3HR-1 cells; details: for EC50: human gammaherpesvirus 4, P3HR-1, 120 h, read-out: EC50, Antiviral Activity against EBV (in P3HR-1 Cells); for EC90: human gammaherpesvirus 4, P3HR-1, read-out: EC90, Antiviral Activity against EBV (in P3HR-1 Cells); for SI (CC50/EC50), EBV: selectivity index = CC50/EC50, P3HR-1 cells
Protocol: The antiviral potency of all synthesized nucleosides was evaluated by in-vitro cell-based assays. P3HR-1 cells were seeded in 24-well plates at a density of 1 × 10^6 cells/mL. EBV replication was induced by adding 25 ng/mL 12-O-tetradecanoylphorbol 13-acetate (TPA) (Sigma–Aldrich, Bornem, Belgium) to the growing cells. The next day, cells were washed and resuspended in fresh medium in the presence or absence of various concentrations of synthesized nucleosides (12–19). Ganciclovir (GCV) was used as antiviral control. On day 5 post-induction, total cellular DNA was extracted (QIAamp DNA kit; Qiagen Benelux B.V, Venlo, The Netherlands), and viral DNA was quantified by quantitative PCR (qPCR) using an ABI Prism 7500 Sequence Detection System (Applied Biosystems, Foster City, CA). Thermocycling conditions for all qPCRs were done following the manufacturer’s instructions. […] The results were obtained as a means from at least three independent experiments. The selectivity index of the compound was determined by the ratio of CC50/EC50. For both efficacy and cytotoxicity assays, the 50% reduction in efficacy (EC50) and cell viability (CC50) was determined using GraphPad software (GraphPad, San Diego, CA, USA, www.graphpad.com).
0.2, 0.04, 0 μM). TPA was removed after 24 h, and the same concentration of compounds was […]
replaced. […]
Real-time PCR detection of viral DNA: EBV DNA was extracted with a QIAGEN Dneasy Blood and Tissue Kit. The DNA volume was 30 μL. DNA concentration (ng/μL) was determined with a Nanophotometer (IMPLEN). The Real -time PCR was performed using QuantiTect Sybr Green PCR Kit. The amplicon was a 71 bp portion of the EBNA1 gene. The primers were […]
(§1) The 20 μL PCR sample contained 100 ng
DNA, 10 μL Universal PCR Master Mix, primer (0.5 uM final concentration), 1 μL BamH I-HF (Restriction Enzyme, BioLabs) and RNase -free water. The PCR program consisted of 1 cycle at 50 °C, 2 minutes of UNG pretreatment, followed by 1 cycle at 95 °C for 15 minutes. Then 40 cycles of 94 °C for 15 seconds, 55 °C for 30 seconds, and 72 °C for 30 seconds were carried out.
(§2) Evaluation of Cytotoxicity: The cytotoxic effects of test compounds for P3HR1 and TZN-GFP cells were determined by CellTiter 96 Non-Radioactive Cell Proliferation assay system (Promega) using either 2,3-Bis-(2-Methoxy-4-nitro-5-sulfophenyl)-2H-tetrazolium-5-carboxanilide, disodium salt (XTT) or 3- (4,5-dimethylthiazol-2-yl)-2,5-diphenyltetrazolium bromide (MTT) methods under the same conditions as the antiviral assay but in the absence virus. Cells were seeded at a density of 1 x 105 (P3HR-1) or 2 x 104 (TZM-GFP) cells per well in 96-well plates and […]

HIV-FL = assay: microbe, parasite or virus in culture
Protocol: First, TZM-GFP cells were seeded in the 96-well plate (10 000/well), and after 24 h, selected compounds and HIV FL virus (MOI = 0.1) were added to the plate. […] At 48 h post-infection (hpi), GFP production due to infection was measured by Cytation 5, and a 50% reduction in efficacy (EC50) and cell viability (CC50) were determined using GraphPad software (San Diego, CA, USA, www.graphpad.com). […]
(10,000/well), and after 24 h, selected compounds and HIV FL (MOI=0.1) virus were added to the […]
plate. […] At 48 h post-infection (hpi), the GFP cells were measured by Cytation 5, and a 50% reduction in efficacy (EC50) and cell viability (CC50) was determined using GraphPad software (San Diego, California, www.graphpad.com). […]
as §2

[1] = Cytotoxicity in P3HR-1 cells (XTT or MTT assay); assay type: cell-based; details: human
[2] = Cytotoxicity in TZM-GFP cells (XTT or MTT assay); assay type: cell-based; details: human; concentration reducing cellular viability by 50% after 48 h, XTT or MTT assay; TZM-GFP cells
Protocol: (§3) plate. […] At 48 h post-infection (hpi), the
(§4) Blood and Tissue Kit. The DNA volume was 30 μL. DNA concentration (ng/μL) was determined with a Nanophotometer (IMPLEN). The Real -time PCR was performed using QuantiTect Sybr […]
(§5) Green PCR Kit. […] The primers were
as §1
(§6) (Restriction Enzyme, BioLabs) and RNase -free water. The PCR program consisted of 1 cycle at […]
(§7) allowed to incubate overnight. On the second day, different concentrations of test compounds were […]
(§8) added to respective cells. Following 4 days of incubation at 37 °C in a CO2 incubator, the MTT or […]
(§9) XTT reagent was added, and the cells were incubated for 3 hours at 37 °C. Subsequently, the […]
(§10) absorbance of the samples was measured using a microplate reader (Biotek). The cytotoxic […]
(§11) concentration (CC50) was determined based on the viability of mock-infected cells. […]

TZM-GFP cells = assay: Cytotoxicity in TZM-GFP cells (XTT or MTT assay); assay type: cell-based
Protocol: as §3, §4, §5, §1, §6, §7, §8, §9, §10, §11

[3] = Human immunodeficiency virus 1, read-out: EC50, Antiviral Activity against HIV-FL (in TZM-GFP Cells)
[4] = concentration reducing cellular viability by 50% after 48 h, XTT or MTT assay, P3HR-1 cells, read-out: CC50 (P3HR-1 Cells)

Row | SMILES | antiviral activity against EBV (in words) (EBV; P3HR-1 cells) | EC50 (EBV) [µM] | EC90 (EBV) [µM] | EC50 (HIV-FL; [3]) [µM] | CC50 at 48 h [1, 4] [µM] | CC50 at 48 h [2] [µM] | potency against EBV relative to ganciclovir (times more potent) (EBV; EC50 compared with GCV, P3HR-1 cells) | SI (CC50/EC50), EBV (EBV) | CC50 at 48 h [1] [µM] | EC50 (HIV-FL; read-out: EC50, Antiviral Activity against HIV-FL (in TZM-GFP Cells), 48 hpi, MOI = 0.1, TZM-GFP cells, mean of at least three experiments) [µM] | SI (CC50/EC50), HIV-FL (HIV-FL; selectivity index = CC50/EC50, TZM-GFP cells) | CC50 (TZM-GFP cells) [µM]
1 | Nc1ncnc2c1ccn2[C@H]1CO[C@@H](CO)O1 [Compound 12] | inactive | > 25 | > 25 | 5.85 ± 1.01 | 91.3 | > 100 | – | – | – | – | – | –
2 | Nc1ncnc2c1c(F)cn2[C@H]1CO[C@@H](CO)O1 [Compound 13] | – | 1.2 ± 1.8 | 2.28 ± 1.29 | 3.96 ± 0.39 | 71.3 ± 25.6 | > 100 | – | – | – | – | – | –
3 | Nc1ncnc2c1c(Cl)cn2[C@H]1CO[C@@H](CO)O1 [Compound 14] | – | 12.5 ± 0.8 | > 25 | 28.7 ± 0.45 | > 100 | 88 | – | – | – | – | – | –
4 | Nc1ncnc2c1c(Br)cn2[C@H]1CO[C@@H](CO)O1 [Compound 15, 7-Bromo-deazapurine-D-dioxolane nucleoside] | potent anti-EBV activity | 0.17 | 0.54 ± 0.36 | 20.8 ± 0.25 | 49.9 | 41.9 | 14 | 294 | – | – | – | –
5 | Nc1ncnc2c1c(I)cn2[C@H]1CO[C@@H](CO)O1 [Compound 16] | potent anti-EBV activity | 0.47 ± 0.2 | 1.5 ± 0.09 | 10.3 ± 0.39 | 21.2 | 11.9 | – | 45 | – | – | – | –
6 | Nc1nc(N)c2ccn([C@H]3CO[C@@H](CO)O3)c2n1 [Compound 17] | – | 11.9 ± 0.3 | – | – | > 100 | – | – | >8 | – | – | – | –
7 | Nc1nc(F)nc2c1ccn2[C@H]1CO[C@@H](CO)O1 [Compound 18] | – | 15.5 ± 3.7 | > 23.9 | – | 91.7 | – | – | 6 | – | – | – | –
8 | CNc1nc(N)nc2c1ccn2[C@H]1CO[C@@H](CO)O1 [Compound 19] | inactive | > 25 | – | – | 13.3 | – | – | – | – | – | – | –
9 | Nc1nc(O)c2ncn(COC(CO)CO)c2n1 [GCV, ganciclovir, reference compound] | – | 2.5 ± 0.22 | 16.2 ± 0.21 | – | – | – | – | >40 | > 100 | – | – | –
10 | C=Cc1cn([C@@H]2CO[C@H](CO)O2)c(=O)[nH]c1=O [L-HDVD, reference compound] | – | 0.12 ± 0.01 | 0.52 ± 0.04 | – | > 100 | – | – | >833 | – | – | – | –
11 | Cc1[nH]c2ccccc2c1CC(=O)N[C@@H](Cc1ccccc1)C(=O)N(C)c1ccccc1 [PF-74, reference compound] | – | – | – | – | – | – | – | – | – | 0.6 ± 0.05 | >166 | > 100
